Measurements: patent publication US12433865B2, “Compositions comprising PGI2-receptor agonists and processes for the preparation thereof” (Arena Pharmaceuticals, Inc., priority 2018, dated 2025)

Experiment: Release (dissolution) profile of tablets, USP Apparatus 1 (baskets)
Assay type: physicochemical
Conditions: for mean value (n = 6) of % of Compound 1 released: tablet, 25 mg Methocel K100 Premium LVCR
Excerpt: USP Apparatus 1 (BASKETS) is described, for example, in the United States Pharmacopeial Convention, Feb. 1, 2012, Chapter <711> (“Dissolution”), incorporated by reference herein in its entirety. See http://www.usp.org/sites/default/files/usp_pdf/EN/USPNF/revisions/m99470-gc_711.pdf. The USP Apparatus 1 (baskets) assembly consists of the following: a vessel, which may be covered, made of glass or other inert, transparent material; a motor; a metallic drive shaft; and a cylindrical basket. The materials should not sorb, react, or interfere with the specimen being tested. The vessel is partially immersed in a suitable water bath of any convenient size or heated by a suitable device such as a heating jacket. The water bath or heating device permits holding the temperature inside the vessel at 37±0.5° during the test and keeping the bath fluid in constant, smooth motion. No part of the assembly, including the environment in which the assembly is placed, contributes significant motion, agitation, or vibration beyond that due to the smoothly rotating stirring element. An apparatus that permits observation of the specimen and stirring element during the test is preferable. The vessel is cylindrical, with a hemispherical bottom and with one of the following dimensions and capacities: for a nominal capacity of 1 L, the height is 160 mm to 210 mm and its inside diameter is 98 mm to 106 mm; for a nominal capacity of 2 L, the height is 280 mm to 300 mm and its inside diameter is 98 mm to 106 mm; and for a nominal capacity of 4 L, the height is 280 mm to 300 mm and its inside diameter is 145 mm to 155 mm. Its sides are flanged at the top. A fitted cover may be used to retard evaporation. If a cover is used, it provides sufficient openings to allow ready insertion of the thermometer and withdrawal of specimens. The shaft is positioned so that its axis is not more than 2 mm at any point from the vertical axis of the vessel and rotates smoothly and without significant wobble that could affect the results. The vertical center line of the blade passes through the axis of the shaft so that the bottom of the blade is flush with the bottom of the shaft. A distance of 25 f 2 mm between the bottom of the blade and the inside bottom of the vessel is maintained during the test. The metallic or suitably inert, rigid blade and shaft comprise a single entity. A suitable two-part detachable design may be used provided the assembly remains firmly engaged during the test.
A speed-regulating device is used that allows the shaft rotation speed to be selected and maintained at the specified rate within +4%. Shaft and basket components of the stirring element are fabricated of stainless steel, type 316, or other inert material. A basket having a gold coating of about 0.0001 inch (2.5 μm) thick may be used. A dosage unit is placed in a dry basket at the beginning of each test. The distance between the inside bottom of the vessel and the bottom of the basket is maintained at 25±2 mm during the test.
The release profiles for modified-release tablets were measured using USP Apparatus 1 (baskets).
All release profiles disclosed in Tables 6a-6d were measured with USP Apparatus 1 (baskets) at 100 rpm in 500 mL of aqueous sodium phosphate at a concentration of 0.05 M (pH=6.8). The values in a given table relate to tablets obtained from the same batch. Values shown represent mean values over a number of dissolution tests (“n” in each table) in each case.

O=C(O)COC[C@H]1CC[C@H](COC(=O)N(c2ccccc2)c2ccc(Cl)cc2)CC1 [Compound 1, 2-(((1r,4r)-4-(((4-chlorophenyl)(phenyl)carbamoyloxy)methyl)cyclohexyl)methoxy)acetic acid]
release rate of tablets relative to modified-release capsule (0.5 mg tablet with 40% HPMC K4M CR): faster | mean value (n = 6) of % of Compound 1 released (Table 6a: initial release profile, 0.05 mg Compound 1, 25 mg Methocel K4M Premium CR, 60 min): 6.9% | mean value (n = 6) of % of Compound 1 released (Table 6a: initial release profile, 0.05 mg Compound 1, 25 mg Methocel K4M Premium CR, 120 min): 25.3% | mean value (n = 6) of % of Compound 1 released (Table 6a: initial release profile, 0.05 mg Compound 1, 25 mg Methocel K4M Premium CR, 180 min): 35.8% | mean value (n = 6) of % of Compound 1 released (Table 6a: initial release profile, 0.05 mg Compound 1, 25 mg Methocel K4M Premium CR, 240 min): 45.1% | mean value (n = 6) of % of Compound 1 released (Table 6a: initial release profile, 0.05 mg Compound 1, 25 mg Methocel K4M Premium CR, 360 min): 62% | mean value (n = 6) of % of Compound 1 released (Table 6a: initial release profile, 0.05 mg Compound 1, 25 mg Methocel K4M Premium CR, 480 min): 74.8% | mean value (n = 6) of % of Compound 1 released (Table 6a: initial release profile, 0.05 mg Compound 1, 25 mg Methocel K4M Premium CR, 600 min): 86.6% | mean value (n = 6) of % of Compound 1 released (Table 6a: initial release profile, 0.05 mg Compound 1, 25 mg Methocel K4M Premium CR, 840 min): 100.4% | mean value (n = 6) of % of Compound 1 released (Table 6b: initial release profile, 0.5 mg Compound 1, 25 mg Methocel K4M Premium CR, 60 min): 17.9% | mean value (n = 6) of % of Compound 1 released (Table 6b: initial release profile, 0.5 mg Compound 1, 25 mg Methocel K4M Premium CR, 120 min): 27.3% | mean value (n = 6) of % of Compound 1 released (Table 6b: initial release profile, 0.5 mg Compound 1, 25 mg Methocel K4M Premium CR, 180 min): 36.9% | mean value (n = 6) of % of Compound 1 released (Table 6b: initial release profile, 0.5 mg Compound 1, 25 mg Methocel K4M Premium CR, 240 min): 45.5% | mean value (n = 6) of % of Compound 1 released (Table 6b: initial release profile, 0.5 mg Compound 1, 25 mg Methocel K4M Premium CR, 360 min): 61.1% | mean value (n = 6) of % of Compound 1 released (Table 6b: initial release profile, 0.5 mg Compound 1, 25 mg Methocel K4M Premium CR, 480 min): 74.2% | mean value (n = 6) of % of Compound 1 released (Table 6b: initial release profile, 0.5 mg Compound 1, 25 mg Methocel K4M Premium CR, 600 min): 84.8% | mean value (n = 6) of % of Compound 1 released (Table 6b: initial release profile, 0.5 mg Compound 1, 25 mg Methocel K4M Premium CR, 840 min): 98.1% | mean value (n = 6) of % of Compound 1 released (Table 6c: after storage at 40° C. and 75% RH for 6 months, 0.05 mg Compound 1, 25 mg Methocel K4M Premium CR, 60 min): 17% | mean value (n = 6) of % of Compound 1 released (Table 6c: after storage at 40° C. and 75% RH for 6 months, 0.05 mg Compound 1, 25 mg Methocel K4M Premium CR, 120 min): 27.1% | mean value (n = 6) of % of Compound 1 released (Table 6c: after storage at 40° C. and 75% RH for 6 months, 0.05 mg Compound 1, 25 mg Methocel K4M Premium CR, 180 min): 36.9% | mean value (n = 6) of % of Compound 1 released (Table 6c: after storage at 40° C. and 75% RH for 6 months, 0.05 mg Compound 1, 25 mg Methocel K4M Premium CR, 240 min): 45.4% | mean value (n = 6) of % of Compound 1 released (Table 6c: after storage at 40° C. and 75% RH for 6 months, 0.05 mg Compound 1, 25 mg Methocel K4M Premium CR, 360 min): 61.1% | mean value (n = 6) of % of Compound 1 released (Table 6c: after storage at 40° C. and 75% RH for 6 months, 0.05 mg Compound 1, 25 mg Methocel K4M Premium CR, 480 min): 75.8% | mean value (n = 6) of % of Compound 1 released (Table 6c: after storage at 40° C. and 75% RH for 6 months, 0.05 mg Compound 1, 25 mg Methocel K4M Premium CR, 600 min): 86.9% | mean value (n = 6) of % of Compound 1 released (Table 6c: after storage at 40° C. and 75% RH for 6 months, 0.05 mg Compound 1, 25 mg Methocel K4M Premium CR, 840 min): 100% | mean value (n = 6) of % of Compound 1 released (Table 6d: after storage at 40° C. and 75% RH for 6 months, 0.5 mg Compound 1, 25 mg Methocel K4M Premium CR, 60 min): 6.8% | mean value (n = 6) of % of Compound 1 released (Table 6d: after storage at 40° C. and 75% RH for 6 months, 0.5 mg Compound 1, 25 mg Methocel K4M Premium CR, 120 min): 24.3% | mean value (n = 6) of % of Compound 1 released (Table 6d: after storage at 40° C. and 75% RH for 6 months, 0.5 mg Compound 1, 25 mg Methocel K4M Premium CR, 180 min): 33% | mean value (n = 6) of % of Compound 1 released (Table 6d: after storage at 40° C. and 75% RH for 6 months, 0.5 mg Compound 1, 25 mg Methocel K4M Premium CR, 240 min): 41.3% | mean value (n = 6) of % of Compound 1 released (Table 6d: after storage at 40° C. and 75% RH for 6 months, 0.5 mg Compound 1, 25 mg Methocel K4M Premium CR, 360 min): 55.5% | mean value (n = 6) of % of Compound 1 released (Table 6d: after storage at 40° C. and 75% RH for 6 months, 0.5 mg Compound 1, 25 mg Methocel K4M Premium CR, 480 min): 67.9% | mean value (n = 6) of % of Compound 1 released (Table 6d: after storage at 40° C. and 75% RH for 6 months, 0.5 mg Compound 1, 25 mg Methocel K4M Premium CR, 600 min): 79.4% | mean value (n = 6) of % of Compound 1 released (Table 6d: after storage at 40° C. and 75% RH for 6 months, 0.5 mg Compound 1, 25 mg Methocel K4M Premium CR, 840 min): 94.7% | change of release profile following storage over time (modified-release tablets (FIGS. 12-14), storage at 40° C. and 75% RH for six months): did not change significantly | release rate of tablets relative to modified-release capsule (tablet with 30% HPMC K4M and 20% HPMC K100 LVCR): slightly faster | release rate of tablets relative to modified-release capsule (tablet with 40% HPMC K4M and 10% HPMC K100 LVCR, time points <6 hrs): faster | release rate of tablets relative to modified-release capsule (tablet with 40% HPMC K4M and 10% HPMC K100 LVCR, time points ≥6 hrs): slower | difference of percentage by weight of compound released, initial vs after storage (tablets 0.05 mg and 0.5 mg (FIGS. 12 and 13), storage at 40° C. and 75% RH for six months, any time point equal to or greater than 2 hours): ≤ 10%
